The test system of one test is U-373MG. Briefly: MTT overall cell growth, U-373MG cells. As to conditions: Homo sapiens. It is filed as cell-based. The procedure: Tests were performed in order to rapidly, i.e. within 5 days, measure the effect of the compound of example 2 on the overall cell growth. The test measures the number of metabolically active living cells that are able to transform the yellow product 3-(4,5-dimethylthiazol-2-yl)-2,5-diphenyl tetrazolium bromide (herein referred as MTT) into the blue product formazan dye by mitochondrial reduction. The amount of formazan obtained at the end of the experiment, measured by means of a spectrophotometer, is directly proportional to the number of living cells. Optical density determination thus enables a quantitative measurement of the effect of the investigated compounds as compared to the control condition (untreated cells) and/or to other reference compounds.
Six human cancer cell lines described in table 1 were used in the following MTT tests. These cell lines cover six histological cancer types, being prostate, glioma, pancreas, colon, lung and breast cancers. Cells were allowed to grow in 96 well micro-wells with a flat bottom with an amount of 100 μl of cell suspension per well with 1,000 to 4,000 cells/well depending on the cell type used. Each cell line was seeded in a well known MEM 10% serum culture medium. […]
After 72 hours of incubation at 37° C. with (experimental conditions) or without (control condition) the compound to be tested, the medium was replaced by 100 μl MTT dissolved in RPMI (1640 without phenol red) at a concentration of 1 mg/ml. […] The micro-wells were shaken for 5 minutes and read on a spectrophotometer at wavelengths of 570 nm (maximum formazan absorbance) and 630 nm (back-ground noise).
For each experimental condition, the mean optical density was calculated, as well as the percentage of remaining living cells in comparison with the control.
(§1) The overall growth of human cancer cell lines was determined by means of the calorimetric MTT (3-[4,5-dimethylthiazol-2-yl]-diphenyl tetrazolium bromide; Sigma) assay, as detailed previously.

The next test concerns DU-145. Briefly: MTT colorimetric assay, DU-145 cells. It is filed as cell-based. As to conditions: Homo sapiens, 72 h, 3 days of culturing, mean of six determinations, read-out: IC50 (μM) In Vitro Growth Inhibition. The protocol:
as §1
(In general: Formazan colour is commonly taken as a measure of viable cells.)

Test [1] relates to nine human cancer cell lines. Briefly: MTT colorimetric assay, mean of nine cell lines. It is filed as cell-based. As to conditions: mean over nine human cancer cell lines, read-out: mean antiproliferative activity IC50. The protocol: as §1
UNBS3157 and UNBS5162 display weak antiproliferative activity in vitro.

For another test, the system named is CFC-GEMM. Briefly: HALO hematotoxicity assay, human CFC-GEMM. The test is classed as cell-based. As to conditions: 7 days culture, iATP. The protocol:
Investigation of the hematotoxic potential of UNBS5162 was undertaken by HemoGenix (Colorado Springs, Colo.). The effects of UNBS5162 on stem and progenitor cell populations from murine and human bone marrow were assessed using HALO (Hematopoietic/Hematotoxicity Assay through Luminescence Output) technology. Stem and hematopoietic progenitor cell populations were isolated from mouse and human bone marrow samples, plated at a concentration of 1.0×10^4 cells/well and cultured for 5 and 7 days, respectively, in the presence of growth factors and increasing concentrations of UNBS5162 ranging from 0.5 nM to 50 μM. The proliferative or growth potential of cell populations was determined from intracellular ATP (iATP) concentrations and a luciferin/luciferase bioluminescence signal detection system. All samples were assayed in eight replicates. The results are presented as estimated inhibitory concentration (IC) values.

The test system of test [2] is Rb, pRb. Briefly: Western blot of Rb and p-Rb, PC-3. The test is classed as cell-based, human. Particulars: 10 μM, 48 and 72 hours. The protocol: Cell extracts were prepared by the lysis of subconfluent PC-3 cells directly in boiling lysis buffer (10 mM Tris, pH 7.4, 1 mM Na3O4V, 1% SDS, pH 7.4). Approximately 40 μg of extracted proteins (evaluated by the bicinchoninic acid protein assay; Pierce, Perbio Science, Erembodegem, Belgium) was then loaded onto a denaturing polyacrylamide gel. The proteins submitted to Western blot analyses were detected using primary antibodies provided by: 1) CST Technologies, Bioké, Leiden, The Netherlands: Rb (1:2000) and p-Rb (1:1000); 2) BD Transduction Laboratories, Erembodegem, Belgium: E2F1 (1:400); and 3) AbCam, Cambridge, UK: tubulin (1:3000, used as a loading control). The antibody for LC-3 protein (1:500) was kindly provided by Dr. Yasuko Kondo. Western blot analyses were performed as detailed previously.
For orientation: A western blot detects proteins with antibodies after separation by electrophoresis.

Test [3] has as its system Rb, pRb. Briefly: Western blot of Rb and p-Rb, DU-145. Particulars: 10 μM. It is filed as cell-based, human.
Test [4] relates to CXCL1, CXCL2, CXCL3, CXCL5, CXCL6, and CXCL8 chemokines. Briefly: CXCL chemokine expression (microarray and ELISA), PC-3. The test is classed as cell-based, human. As to conditions: 1 μM five times a week. The procedure:
Two different Quantikine ELISA kits (R&D Systems, Abingdon, UK) for the quantification of human CXCL1 and CXCL8 (IL-8) were used in this study in accordance with the manufacturer's instructions. Cell culture supernatants were collected after different treatments and periods, with multiple aliquots taken and stored at −20° C. until analysis.
On the technique in general: An ELISA detects its analyte on a solid surface through an enzyme-linked reagent.

In another test the test system is MXT-HI mammary tumor. Briefly: Syngeneic MXT-HI mammary tumor s.c., with or without irradiation. Particulars: for Mean tumor size: UNBS5162 i.v. (5i × 3w) 10 mg/kg, alone or with 10 gray; for Number of mice dead or sacrificed: 11 mice per group.
Where [5] appears, read: UNBS5162 10 mg/kg i.v. 5i×3w, alone or with 1×10 gray.

Data on 1 compound can be found in patent US20090186915A1, “Compositions and methods for treatment of glioblastoma, gliosarcoma, NSCLC, and head and neck cancer” (Unibioscreen S. A., priority 2006, published 2009).

Structures are written as SMILES. Like-named read-outs stand apart in the source and are kept apart here.

Protocol for MXT-HI mammary tumor: The MXT-HI models used in our laboratory involve subcutaneously injecting MXT-HI tumor fragments into the flanks of B6D2F1 mice.
After the adaptation period, animals were inoculated subcutaneously with MXT-HI tumor. Briefly, “bank animals” were sacrificed and MXT-HI tumors were isolated from the animals, kept in saline solution and minced into 1 mm^3 pieces. These pieces (one/animal) were randomly s.c. inoculated into the right flanks of mice by means of a trocar.
UNBS5162 was dosed intravenously in accordance with UNBS procedure #002. The dosing volume was fixed at 200 μL/mouse. Group 1: Control (lactic acid vehicle) (5i/week×3 weeks) Group 2: UNBS5162 (10 mg/kg, 5i/week×3 weeks) Group 3: Irradiated (10 gray, 1 irradiation) Group 4: Irradiated (10 gray, 1 irradiation)+UNBS5162 (10 mg/kg, 5i/week×3 weeks) For group 4, the first administration of UNBS5162 was performed at the morning of the day of irradiation (5 Dec. 2007).
Briefly, animals were anaesthetized, using a syringe, with 150 μl of Rompun/Ketalar mixture (1 part Rompun/1 part Ketalar/4.5 parts saline) injected intraperitoneally. After approximately 5 minutes and after verification that animals were completely asleep, an irradiation simulation was performed first to focalise irradiation in the tumor centre and to avoid to irradiate healthy tissue. Simulation was performed individually on each animal to adapt irradiation to tumor size. In a second time, the tumor was irradiated with a dose of 10 gray (5 MV photons from a linear accelerator at a source skin distance of 1 m).
For technical reasons, irradiation was not performed the same day for all animals. Tumor irradiation was performed on day 14 post-graft for group 4 (irradiated+UNBS5162) and on day 16 post-graft for group 3 (irradiated alone).
Tumor growths were recorded 3 times weekly on Monday, Wednesday and Friday.
Statistical comparisons between the control group and the treated groups were performed with the non-parametric Mann-Whitney U-test. Survival analysis was done either by calculating the % T/C-value or with Kaplan-Meier analysis and Log-rank statistics. All statistical analyses were carried out using Statistica software (Statsoft, Tulsa, Okla.). The cut-off level for statistical significance was set at a p-value of p<0.05.
The T/C-values were calculated by dividing the day of death or sacrifice of the median mouse in a treated group T by the day of death or sacrifice of the median mouse in the control group C, the latter said to be 100%.

The term IC50 denotes the concentration that inhibits the measured activity by half. By IC90 is commonly meant the point of the concentration-response curve where the effect stands at 90%. For orientation: IC75 means the concentration needed for an effect of 75%. The low end stands for an effect from little substance, the high end for a need for much substance. Turning to `CN(C)CCN1C(=O)c2cccc3cc(NC(N)=O)cc(c23)C1=O` [UNBS5162, N-{2-[2-(dimethylamino)ethyl]-1,3-dioxo-2,3-dihydro-1H-benzo[de]isoquinolin-5-yl}urea], the IC50 is 4.7 µM with U-373MG (72 h, U373-MG, 3 days of culturing, mean of six determinations, read-out: IC50 (μM) In Vitro Growth Inhibition); 5 to 10 µM in the test with U-373MG (U373 MG, U-373MG, 72 hours incubation, range of molar concentrations, read-out: IC50); 16 µM with DU-145; 17.9 µM in test [1]; 2.57 µM in the test on CFC-GEMM (168 h). Moreover, the 90% effect level with CFC-GEMM (168 h) (IC90) was put at 12.8 µM. The compound also registered an IC75 in the test on CFC-GEMM of 5.67 µM. The Rb protein expression result in the test on Rb, pRb [2] is “completely abolished Rb protein expression”; in the test with Rb, pRb [3] it was “a decrease but not the complete disappearance of Rb protein and E2F1 expression”. Further, the “expression of proangiogenic CXCL chemokines (mRNA and protein)” value in test [4] is on record as “dramatically decreased”. Further, the Mean tumor size in the test with MXT-HI mammary tumor (Day 14) was determined as 178.52 mm^2; in the test with MXT-HI mammary tumor (Day 16), 250.08 mm^2; with MXT-HI mammary tumor (Day 19), 414.11 mm^2; with MXT-HI mammary tumor (Day 21), 423.71 mm^2; in the test on MXT-HI mammary tumor (Day 23) it was 481.56 mm^2; in the test on MXT-HI mammary tumor (Day 26) it was 619.21 mm^2. Besides, in the test on MXT-HI mammary tumor (setting [5]), the “effect on tumor area” value is “no relevant effects”. The “survival of MXT-HI-bearing mice” value with MXT-HI mammary tumor (setting [5]) is listed as “No prolongation of survival”. Moreover, the “Number of mice dead or sacrificed” value in the test with MXT-HI mammary tumor (day 19 post graft) is listed as 1; in the test on MXT-HI mammary tumor (day 21 post graft) it was 2; with MXT-HI mammary tumor (day 23 post graft) it was 3; in the test with MXT-HI mammary tumor (day 26 post graft), 4; with MXT-HI mammary tumor (day 28 post graft), 1.
